Literature values, collected in article PMC3814616, “BRAF inhibitors suppress apoptosis through off-target inhibition of JNK signaling” (eLife, 2013).

Tests used:
MEK6 (MAP2K6) = biological target: T1, MEK6 (MAP2K6) (Homo sapiens, UniProt P52564); set-up: method as in Bollag et al., 2010; settings: ref Bollag et al., 2010; read-out: Published biochemical IC50; cited from earlier work
T1 construct: purchased KINOMEscan (DiscoveRx), San Diego, CA

MST1 (STK4) = biological target: T2, MST1 (STK4) (Homo sapiens, UniProt Q13043); set-up: method as in Tsai et al., 2008; settings: ref Tsai et al., 2008; read-out: Published biochemical IC50; cited from earlier work
T2 construct: purchased KINOMEscan (DiscoveRx), San Diego, CA
T2 sequence (Q13043 1-487): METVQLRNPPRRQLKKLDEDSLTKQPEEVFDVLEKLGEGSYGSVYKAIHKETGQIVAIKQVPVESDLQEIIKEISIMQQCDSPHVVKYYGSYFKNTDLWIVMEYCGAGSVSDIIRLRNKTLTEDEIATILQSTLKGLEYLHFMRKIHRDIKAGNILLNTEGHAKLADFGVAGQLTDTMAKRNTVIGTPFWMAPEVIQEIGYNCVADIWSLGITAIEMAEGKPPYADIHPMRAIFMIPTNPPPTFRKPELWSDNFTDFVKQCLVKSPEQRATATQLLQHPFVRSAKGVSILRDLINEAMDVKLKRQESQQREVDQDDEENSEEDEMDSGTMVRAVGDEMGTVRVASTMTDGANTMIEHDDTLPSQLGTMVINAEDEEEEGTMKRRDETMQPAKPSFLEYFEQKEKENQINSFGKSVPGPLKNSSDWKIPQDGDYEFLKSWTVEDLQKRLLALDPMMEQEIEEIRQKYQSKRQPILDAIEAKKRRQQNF

T1 sequence (P52564 whole entry): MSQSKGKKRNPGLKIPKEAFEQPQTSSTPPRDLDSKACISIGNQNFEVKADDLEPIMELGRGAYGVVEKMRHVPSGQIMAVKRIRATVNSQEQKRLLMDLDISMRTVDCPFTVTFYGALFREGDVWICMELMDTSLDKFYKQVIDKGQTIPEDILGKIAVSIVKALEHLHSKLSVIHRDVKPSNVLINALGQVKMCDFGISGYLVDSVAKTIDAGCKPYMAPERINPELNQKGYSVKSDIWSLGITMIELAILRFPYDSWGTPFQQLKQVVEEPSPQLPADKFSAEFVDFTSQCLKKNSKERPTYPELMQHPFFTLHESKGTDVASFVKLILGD

SMILES	IC50 (MEK6 (MAP2K6)) [nM]	IC50 (MST1 (STK4)) [nM]
CCCS(=O)(=O)Nc1ccc(F)c(C(=O)c2c[nH]c3ncc(-c4ccc(Cl)cc4)cc23)c1F [vemurafenib]	> 1000	–
CCCS(=O)(=O)Nc1ccc(F)c(C(=O)c2c[nH]c3ncc(Cl)cc23)c1F [PLX4720]	–	> 5000
